This note sets out measurements from US9133204B2, “5-membered heterocyclic amides and related compounds” (H. Lundbeck A/S, priority 2007, dated 2015).

The first experiment has as its target T1, P2X7 receptor (Homo sapiens, UniProt Q99572).
T1 construct: host or cells: SH-SY5Y
T1 sequence (Q99572 1-595): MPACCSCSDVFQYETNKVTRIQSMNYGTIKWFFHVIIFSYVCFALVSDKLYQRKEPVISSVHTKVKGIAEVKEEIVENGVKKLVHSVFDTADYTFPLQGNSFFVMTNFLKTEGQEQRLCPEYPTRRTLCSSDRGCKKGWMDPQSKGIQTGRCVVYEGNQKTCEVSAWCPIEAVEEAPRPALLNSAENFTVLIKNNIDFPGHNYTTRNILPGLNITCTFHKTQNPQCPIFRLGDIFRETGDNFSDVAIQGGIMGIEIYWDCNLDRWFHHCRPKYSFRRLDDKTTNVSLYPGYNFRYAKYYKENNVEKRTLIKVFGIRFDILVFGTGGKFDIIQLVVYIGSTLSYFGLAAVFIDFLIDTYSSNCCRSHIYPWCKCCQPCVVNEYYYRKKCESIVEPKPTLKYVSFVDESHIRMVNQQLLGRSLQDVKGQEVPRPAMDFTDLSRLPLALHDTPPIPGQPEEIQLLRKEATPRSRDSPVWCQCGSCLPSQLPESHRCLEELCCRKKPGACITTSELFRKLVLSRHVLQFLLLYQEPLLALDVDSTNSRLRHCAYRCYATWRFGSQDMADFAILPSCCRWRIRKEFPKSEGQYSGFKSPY
Description: High throughput P2X7 calcium mobilization assay (Example 4A). It counts as cell-based. As to conditions: SH-SY5Y cells; 50% decrease in fluorescence response of cells exposed to 80 μM BzATP; Table I. In a few lines:
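SH-SY5Y cells loaded with 2.3 μM Fluo-4 AM for 1 h at 37 °C, then preincubated 1 h at room temperature with test compound (final 1–2500 nM) in low-sodium sucrose buffer, pH 7.4. Antagonism measured against 80 μM BzATP (about EC50) as peak FLIPR calcium fluorescence over 2 min, corrected by no-agonist background.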
Background: Calcium flux is commonly read through the fluorescence of an indicator in the cells.
The term IC50 denotes the concentration at which inhibition is half-maximal. With `Cc1cnc(-n2cc(C(=O)NCC34CC5CC(CC(C5)C3)C4)c(C(F)(F)F)n2)nc1N` [Compound 123, N-(adamantan-1-ylmethyl)-1-(4-amino-5-methylpyrimidin-2-yl)-3-(trifluoromethyl)-1H-pyrazole-4-carboxamide], the IC50 was not above 2 µM.

`CCc1nc(-c2ncccn2)sc1C(=O)NCC(CC(C)C)c1ccc(C(F)(F)F)nc1` (stereo not drawn) [Compound 305, 4-ethyl-N-{4-methyl-2-[6-(trifluoromethyl)pyridin-3-yl]pentyl}-2-pyrimidin-2-yl-1,3-thiazole-5-carboxamide]: the IC50 is not above 2 µM.

`CC(C)CC(CNC(=O)c1cn(-c2ncccn2)nc1C(F)(F)F)c1ccccc1` (stereo not drawn) [Compound 209, N-(4-methyl-2-phenylpentyl)-1-pyrimidin-2-yl-3-(trifluoromethyl)-1H-pyrazole-4-carboxamide]: the IC50 was not above 2 µM.

`O=C(NCC1(c2cccnc2)CCCCC1)c1sc(N2CCC(O)CC2)nc1C(F)(F)F` [Compound 295, 2-(4-hydroxypiperidin-1-yl)-N-[(1-pyridin-3-ylcyclohexyl)methyl]-4-(trifluoromethyl)-1,3-thiazole-5-carboxamide]: the IC50 is not above 2 µM.

`Cc1nn(-c2cncc(N)n2)cc1C(=O)NCC12CC3CC(CC(C3)C1)C2` [Compound 43, N-(adamantan-1-ylmethyl)-1-(6-aminopyrazin-2-yl)-3-methyl-1H-pyrazole-4-carboxamide]: the IC50 was not above 2 µM.

For the molecule `COc1ccnc(-n2cc(C(=O)NCC3(c4cccnc4)CCCCC3)c(C(F)(F)F)n2)n1` [Compound 185, 1-(4-methoxypyrimidin-2-yl)-N-[(1-pyridin-3-ylcyclohexyl)methyl]-3-(trifluoromethyl)-1H-pyrazole-4-carboxamide], the IC50 was not above 2 µM.

For `O=C(NCC1(c2cccnc2)CCCCC1)c1sc(-c2ncccn2)nc1C(F)(F)F` [Compound 161, N-[(1-pyridin-3-ylcyclohexyl)methyl]-2-pyrimidin-2-yl-4-(trifluoromethyl)-1,3-thiazole-5-carboxamide], the IC50 was not above 2 µM.

Take `CCCNC(=O)c1nc(-n2cc(C(=O)NCC34CC5CC(CC(C5)C3)C4)c(C)n2)ncc1C` [Compound 108, 2-{4-[(adamantan-1-ylmethyl)carbamoyl]-3-methyl-1H-pyrazol-1-yl}-5-methyl-N-propylpyrimidine-4-carboxamide]: the IC50 is not above 2 µM.

As for `Cc1cnc(-n2cc(C(=O)NCC3(c4ccc(C(F)(F)F)cc4)CCCCC3)c(C(C)(C)C)n2)nc1N` [Compound 177, 1-(4-amino-5-methylpyrimidin-2-yl)-3-tert-butyl-N-({1-[4-(trifluoromethyl)phenyl]cyclohexyl]methyl)-1H-pyrazole-4-carboxamide], the IC50 is not above 2 µM.

For the molecule `O=C(NCC1(c2cccnc2)CCCCC1)c1sc(-c2cccnc2)nc1C(F)(F)F` [Compound 164, 2-pyridin-3-yl-N-[(1-pyridin-3-ylcyclohexyl)methyl]-4-(trifluoromethyl)-1,3-thiazole-5-carboxamide], the IC50 was not above 2 µM.

For `Cc1cnc(-n2cc(C(=O)NCC34CC5CC(CC(C5)C3)C4)c(C)n2)nc1` [Compound 94, N-(adamantan-1-ylmethyl)-3-methyl-1-(5-methylpyrimidin-2-yl)-1H-pyrazole-4-carboxamide], the IC50 is not above 2 µM.

On to `CCc1nc(-c2ncccn2)sc1C(=O)NC[C@@H]1CCC2CC1C2(C)C` (stereo partly drawn) [Compound 248, N-{[(2R)-6,6-dimethylbicyclo[3.1.1]hept-2-yl]methyl}-4-ethyl-2-pyrimidin-2-yl-1,3-thiazole-5-carboxamide], for which the IC50 is not above 2 µM.

In the case of `O=C(NCC1(c2ccc(Cl)cc2)CCC1)c1cn(-c2ncccn2)nc1C(F)(F)F` [Compound 204, N-{[1-(4-chlorophenyl)cyclobutyl]methyl}-1-pyrimidin-2-yl-3-(trifluoromethyl)-1H-pyrazole-4-carboxamide], the IC50 is not above 2 µM.

For `CCn1nc(C)c(Br)c1C(=O)NCC12CC3CC(CC(C3)C1)C2` [Compound 63, N-(adamantan-1-ylmethyl)-4-bromo-1-ethyl-3-methyl-1H-pyrazole-5-carboxamide], the IC50 was not above 2 µM.

Consider `O=C(NCC1(c2cccnc2)CCCCC1)c1cn(-c2ncccn2)nc1C(F)(F)F` [Compound 151, N-[(1-pyridin-3-ylcyclohexyl)methyl]-1-pyrimidin-2-yl-3-(trifluoromethyl)-1H-pyrazole-4-carboxamide], for which the IC50 was not above 2 µM.

As to `CCc1nc(-c2ncccn2)sc1C(=O)NCC(CC(C)C)c1ccc(Cl)cc1` (stereo not drawn) [Compound 249, N-[2-(4-chlorophenyl)-4-methylpentyl]-4-ethyl-2-pyrimidin-2-yl-1,3-thiazole-5-carboxamide], the IC50 was not above 2 µM.

`COc1ccc(-n2cc(C(=O)NCC34CC5CC(CC(C5)C3)C4)c(C(C)C)n2)nn1` [Compound 143, N-(adamantan-1-ylmethyl)-3-isopropyl-1-(6-methoxypyridazin-3-yl)-1H-pyrazole-4-carboxamide]: the IC50 was not above 2 µM.

Regarding `CCCC(CNC(=O)c1cn(-c2ncc(F)c(N)n2)nc1C(F)(F)F)c1ccc(Cl)cc1` (stereo not drawn) [Compound 150, 1-(4-amino-5-fluoropyrimidin-2-yl)-N-[2-(4-chlorophenyl)pentyl]-3-(trifluoromethyl)-1H-pyrazole-4-carboxamide], the IC50 was not above 2 µM.

As to `O=C(NCC12CC3CC(CC(C3)C1)C2)c1c[nH]nc1C(F)(F)F` [Compound 134, N-(adamantan-1-ylmethyl)-3-(trifluoromethyl)-1H-pyrazole-4-carboxamide], the IC50 is not above 2 µM.

For `Cc1nn(-c2nccc(N)n2)cc1C(=O)NCC(CC(C)C)c1ccc(C(F)(F)F)cc1` (stereo not drawn) [Compound 173, 1-(4-aminopyrimidin-2-yl)-3-methyl-N-{4-methyl-2-[4-(trifluoromethyl)phenyl]pentyl}-1H-pyrazole-4-carboxamide], the IC50 was not above 2 µM.

Take `O=C(NCC12CC3CC(CC(C3)C1)C2)c1cn(-c2ncc(F)cn2)nc1C(F)(F)F` [Compound 118, N-(adamantan-1-ylmethyl)-1-(5-fluoropyrimidin-2-yl)-3-(trifluoromethyl)-1H-pyrazole-4-carboxamide]: the IC50 was not above 2 µM.

Consider `O=C(NCC1(c2cccnc2)CCCCC1)c1sc(N2CCC(N3CCCC3)CC2)nc1C(F)(F)F` [Compound 302, N-[(1-pyridin-3-ylcyclohexyl)methyl]-2-(4-pyrrolidin-1-ylpiperidin-1-yl)-4-(trifluoromethyl)-1,3-thiazole-5-carboxamide], for which the IC50 was not above 2 µM.

`O=C(NCC1(c2cccnc2)CCCCC1)c1sc(-n2ncccc2=O)nc1C(F)(F)F` [Compound 307, 2-(6-oxopyridazin-1(6H)-yl)-N-[(1-pyridin-3-ylcyclohexyl)methyl]-4-(trifluoromethyl)-1,3-thiazole-5-carboxamide]: the IC50 was not above 2 µM.

For the molecule `O=C(NCC(c1ccc(Cl)cc1)N1CCCC1)c1sc(-c2ncccn2)nc1C(F)(F)F` (stereo not drawn) [Compound 286, N-[2-(4-chlorophenyl)-2-pyrrolidin-1-ylethyl]-2-pyrimidin-2-yl-4-(trifluoromethyl)-1,3-thiazole-5-carboxamide], the IC50 is not above 2 µM.

`CC(C)CC(CNC(=O)c1cn(-c2ncc(F)c(N)n2)nc1C(F)(F)F)c1cccnc1` (stereo not drawn) [Compound 139, 1-(4-amino-5-fluoropyrimidin-2-yl)-N-(4-methyl-2-pyridin-3-ylpentyl)-3-(trifluoromethyl)-1H-pyrazole-4-carboxamide]: the half-inhibitory concentration (IC50) is not above 2 µM.

Still in this experiment, the particulars now being: SH-SY5Y cells; 50% decrease in fluorescence response of cells exposed to 80 μM BzATP; flag after the MS data in Examples 1-2.
Consider `CC(C)CC(CNC(=O)c1cn(-c2ncccn2)nc1Cl)c1ccc(C(F)(F)F)cc1` (stereo not drawn) [Compound 9, 3-Chloro-N-{4-methyl-2-[4-(trifluoromethyl)phenyl]pentyl}-1-pyrimidin-2-yl-1H-pyrazole-4-carboxamide], for which the IC50 is not above 2 µM.

On to `Cc1cnc(-n2cc(C(=O)NCC34CC5CC(CC(C5)C3)C4)c(C)n2)nc1C(=O)N1CCOCC1` [Compound 4, N-(Adamantan-1-ylmethyl)-3-methyl-1-[5-methyl-4-(morpholin-4-ylcarbonyl)pyrimidin-2-yl]-1H-pyrazole-4-carboxamide], for which the IC50 is not above 2 µM.

Turning to `Cc1nn(C)c(Cc2ccccc2)c1C(=O)NCC12CC3CC(CC(C3)C1)C2` [Compound 16, 5-Benzyl-1,3-dimethyl-1H-pyrazole-4-carboxylic acid (adamantan-1-ylmethyl)-amide], the IC50 was not above 2 µM.

For the molecule `Cc1cnc(-n2cc(C(=O)NCC34CC5CC(CC(C5)C3)C4)c(C)n2)nc1C#N` [1-(4-Cyano-5-methyl-pyrimidin-2-yl)-3-methyl-1H-pyrazole-4-carboxylic acid (adamantan-1-ylmethyl)-amide], the IC50 was not above 2 µM.

Take `Cc1ccc(C2(CNC(=O)c3cc(-c4ccccc4)nn3C)CCCCC2)cn1` [Compound 20, 1-Methyl-3-phenyl-N-{[1-(methylpyridin-3-yl)cyclohexyl]methyl}-1H-pyrazole-5-carboxamide]: the IC50 was not above 2 µM.
